The source of these data is patent US20250382344A1, “Soluble GLP1/GIP/NPY2 Receptor Triple Agonists” (Boehringer Ingelheim International GmH, priority 2024, published 2025).

Broadly, the solubility is the dissolved amount per volume that the medium holds.

Molecules are shown by their SMILES.

A short description of the data set: Solubility in 0.1 M phosphate buffer at pH 7. Format: physicochemical. To be noted: 0.1 M phosphate buffer at pH 7, 10 mg/mL final peptide concentration, shaking 2 hours at room temperature, peptides as TFA-salts; measured sample pH 6.5-7.0; read-out: Solubility. How it is done: Peptides (as TFA-salts) were weighed out in a filter unit (Mini-UniPrep Syringeless Filter 0.45 μm, Whatman PVDF), and 0.1 M phosphate buffer at pH 7 was added to achieve 10 mg/mL final peptide concentration. The peptides were dissolved by shaking the filter units horizontally at 600 rpm for 2 hours at room temperature. Samples were then filtered to remove any insoluble particles. Controls were prepared by weighing out the corresponding peptide solid material and dissolving it in an appropriate vehicle (e.g. ACN:H2O) to a final concentration of 1 mg/mL. Both, the control and sample were analyzed by reversed phase chromatography. The area under the peak of the sample was compared to the control and the solubility was calculated based on that ratio. The pH was measured and recorded for each sample.
With `CC[C@H](C)[C@H](NC(=O)[C@H](Cc1ccccc1)NC(=O)[C@H](C)NC(=O)C(C)(C)NC(=O)[C@H](CCC(N)=O)NC(=O)[C@H](C)NC(=O)[C@H](CCC(N)=O)NC(=O)[C@H](CCCCN)NC(=O)[C@H](CC(=O)O)NC(=O)[C@H](CC(C)C)NC(=O)C(C)(C)NC(=O)[C@@H](NC(=O)[C@H](CO)NC(=O)[C@H](Cc1ccc(O)cc1)NC(=O)[C@H](CC(=O)O)NC(=O)[C@H](CO)NC(=O)[C@@H](NC(=O)[C@H](Cc1ccccc1)NC(=O)[C@@H](NC(=O)CNC(=O)[C@H](CCC(=O)O)NC(=O)C(C)(C)NC(=O)[C@@H](N)Cc1ccc(O)cc1)[C@@H](C)O)[C@@H](C)O)[C@@H](C)CC)C(=O)N[C@@H](CCCNC(=N)N)C(=O)N[C@@H](Cc1c[nH]cn1)C(=O)N[C@@H](CC(C)C)C(=O)N[C@H](C(=O)N[C@@H](CC(N)=O)C(=O)N[C@@H](CCCCNC(=O)[C@@H](N)CCCCNC(=O)CC[C@H](NC(=O)CC[C@H](NC(=O)CC[C@H](NC(=O)CC[C@H](NC(=O)CC[C@H](NC(=O)CC[C@H](NC(=O)CCCCCCCCCCCCCCCCC(=O)O)C(=O)O)C(=O)O)C(=O)O)C(=O)O)C(=O)O)C(=O)O)C(=O)NC(C)(C)C(=O)N[C@H](C(=O)N[C@@H](CCCNC(=N)N)C(=O)N[C@@H](CCC(N)=O)C(=O)N[C@@H](CCCNC(=N)N)C(=O)N[C@@H](Cc1ccc(O)cc1)C(N)=O)[C@@H](C)O)[C@@H](C)CC` [Compound 102, Y-Aib-E-G-T-F-T-S-D-Y-S-I-Aib-L-D-K-Q-A-Q-Aib-A-F-I-R-H-L-I-N-K(1,3)-Aib-T-R-Q-R-Y-NH2.C18DA-gGlu-gGlu-gGlu-gGlu-gGlu-gGlu-eLys(1,2)], the solubility worked out at 9100 µg/mL.
In the case of `CC[C@H](C)[C@H](NC(=O)[C@H](CC(C)C)NC(=O)[C@H](Cc1c[nH]cn1)NC(=O)[C@H](CCCNC(=N)N)NC(=O)[C@@H](NC(=O)[C@H](Cc1ccccc1)NC(=O)[C@H](C)NC(=O)C(C)(C)NC(=O)[C@H](CCC(N)=O)NC(=O)[C@H](C)NC(=O)[C@H](CCC(N)=O)NC(=O)[C@H](CCC(=O)O)NC(=O)[C@H](CC(=O)O)NC(=O)[C@H](CC(C)C)NC(=O)C(C)(C)NC(=O)[C@@H](NC(=O)[C@H](CO)NC(=O)[C@H](Cc1ccc(O)cc1)NC(=O)[C@H](CC(=O)O)NC(=O)[C@H](CO)NC(=O)[C@@H](NC(=O)[C@H](Cc1ccccc1)NC(=O)[C@@H](NC(=O)CNC(=O)[C@H](CCC(=O)O)NC(=O)C(C)(C)NC(=O)[C@@H](N)Cc1ccc(O)cc1)[C@@H](C)O)[C@@H](C)O)[C@@H](C)CC)C(C)C)C(=O)N[C@@H](CC(N)=O)C(=O)N[C@@H](CCCCNC(=O)[C@@H](N)CCCCNC(=O)CC[C@H](NC(=O)CC[C@H](NC(=O)CC[C@H](NC(=O)CC[C@H](NC(=O)CC[C@H](NC(=O)CCCCCCCCCCCCCCCCC(=O)O)C(=O)O)C(=O)O)C(=O)O)C(=O)O)C(=O)O)C(=O)NC(C)(C)C(=O)N[C@H](C(=O)N[C@@H](CCCNC(=N)N)C(=O)N[C@@H](CCC(N)=O)C(=O)N[C@@H](CCCNC(=N)N)C(=O)N[C@@H](Cc1ccc(O)cc1)C(N)=O)[C@@H](C)O` [Compound 108, Y-Aib-E-G-T-F-T-S-D-Y-S-I-Aib-L-D-E-Q-A-Q-Aib-A-F-V-R-H-L-I-N-K(1,3)-Aib-T-R-Q-R-Y-NH2.C18DA-gGlu-gGlu-gGlu-gGlu-gGlu-eLys(1,2)], the solubility came out at 9200 µg/mL.
As for `CC[C@H](C)[C@H](NC(=O)[C@H](CC(C)C)NC(=O)[C@H](Cc1c[nH]cn1)NC(=O)[C@H](CCCNC(=N)N)NC(=O)[C@@H](NC(=O)[C@H](Cc1ccccc1)NC(=O)[C@H](C)NC(=O)C(C)(C)NC(=O)[C@H](CCC(N)=O)NC(=O)[C@H](C)NC(=O)[C@H](CCC(N)=O)NC(=O)[C@H](CCCCN)NC(=O)[C@H](CCC(=O)O)NC(=O)[C@H](CC(C)C)NC(=O)C(C)(C)NC(=O)[C@@H](NC(=O)[C@H](CO)NC(=O)[C@H](Cc1ccc(O)cc1)NC(=O)[C@H](CC(=O)O)NC(=O)[C@H](CO)NC(=O)[C@@H](NC(=O)[C@H](Cc1ccccc1)NC(=O)[C@@H](NC(=O)CNC(=O)[C@H](CCC(=O)O)NC(=O)C(C)(C)NC(=O)[C@@H](N)Cc1ccc(O)cc1)[C@@H](C)O)[C@@H](C)O)[C@@H](C)CC)C(C)C)C(=O)N[C@@H](CC(N)=O)C(=O)N[C@@H](CCCCNC(=O)COCCOCCNC(=O)CC[C@H](NC(=O)CC[C@H](NC(=O)CC[C@H](NC(=O)CC[C@H](NC(=O)CCCCCCCCCCCCCCCCC(=O)O)C(=O)O)C(=O)O)C(=O)O)C(=O)O)C(=O)NC(C)(C)C(=O)N[C@H](C(=O)N[C@@H](CCCNC(=N)N)C(=O)N[C@@H](CCC(N)=O)C(=O)N[C@@H](CCCNC(=N)N)C(=O)N[C@@H](Cc1ccc(O)cc1)C(N)=O)[C@@H](C)O` [Compound 110, Y-Aib-E-G-T-F-T-S-D-Y-S-I-Aib-L-E-K-Q-A-Q-Aib-A-F-V-R-H-L-I-N-K(1,3)-Aib-T-R-Q-R-Y-NH2.C18DA-gGlu-gGlu-gGlu-gGlu-OEG(1,2)], the figure is 800 µg/mL.
As for `CC[C@H](C)[C@H](NC(=O)[C@H](CC(C)C)NC(=O)[C@H](Cc1c[nH]cn1)NC(=O)[C@H](CCCNC(=N)N)NC(=O)[C@@H](NC(=O)[C@H](Cc1ccccc1)NC(=O)[C@H](C)NC(=O)C(C)(C)NC(=O)[C@H](C)NC(=O)[C@H](C)NC(=O)[C@H](CCC(N)=O)NC(=O)[C@H](CCCCN)NC(=O)[C@H](CCC(=O)O)NC(=O)[C@H](CC(C)C)NC(=O)C(C)(C)NC(=O)[C@@H](NC(=O)[C@H](CO)NC(=O)[C@H](Cc1ccc(O)cc1)NC(=O)[C@H](CC(=O)O)NC(=O)[C@H](CO)NC(=O)[C@@H](NC(=O)[C@H](Cc1ccccc1)NC(=O)[C@@H](NC(=O)CNC(=O)[C@H](CCC(=O)O)NC(=O)C(C)(C)NC(=O)[C@@H](N)Cc1ccc(O)cc1)[C@@H](C)O)[C@@H](C)O)[C@@H](C)CC)C(C)C)C(=O)N[C@@H](CC(N)=O)C(=O)N[C@@H](CCCCNC(=O)[C@@H](N)CCCCNC(=O)CC[C@H](NC(=O)CC[C@H](NC(=O)CC[C@H](NC(=O)CC[C@H](NC(=O)CC[C@H](NC(=O)CC[C@H](NC(=O)CCCCCCCCCCCCCCCCC(=O)O)C(=O)O)C(=O)O)C(=O)O)C(=O)O)C(=O)O)C(=O)O)C(=O)NC(C)(C)C(=O)N[C@H](C(=O)N[C@@H](CCCNC(=N)N)C(=O)N[C@@H](CCC(N)=O)C(=O)N[C@@H](CCCNC(=N)N)C(=O)N[C@@H](Cc1ccc(O)cc1)C(N)=O)[C@@H](C)O` [Compound 111, Y-Aib-E-G-T-F-T-S-D-Y-S-I-Aib-L-E-K-Q-A-A-Aib-A-F-V-R-H-L-I-N-K(1,3)-Aib-T-R-Q-R-Y-NH2.C18DA-gGlu-gGlu-gGlu-gGlu-gGlu-gGlu-eLys(1,2)], the figure is 4000 µg/mL.
For `CC[C@H](C)[C@H](NC(=O)[C@H](CC(C)C)NC(=O)[C@H](Cc1c[nH]cn1)NC(=O)[C@H](CCCNC(=N)N)NC(=O)[C@@H](NC(=O)[C@H](Cc1ccccc1)NC(=O)[C@H](C)NC(=O)C(C)(C)NC(=O)[C@H](CCC(N)=O)NC(=O)[C@H](C)NC(=O)[C@H](CCC(N)=O)NC(=O)[C@H](CCCCN)NC(=O)[C@H](CCC(=O)O)NC(=O)[C@H](CC(C)C)NC(=O)C(C)(C)NC(=O)[C@H](CCC(=O)O)NC(=O)[C@H](CO)NC(=O)[C@H](Cc1ccc(O)cc1)NC(=O)[C@H](CC(=O)O)NC(=O)[C@H](CO)NC(=O)[C@@H](NC(=O)[C@H](Cc1ccccc1)NC(=O)[C@@H](NC(=O)CNC(=O)[C@H](CCC(=O)O)NC(=O)C(C)(C)NC(=O)[C@@H](N)Cc1ccc(O)cc1)[C@@H](C)O)[C@@H](C)O)C(C)C)C(=O)N[C@@H](CC(N)=O)C(=O)N[C@@H](CCCCNC(=O)[C@@H](N)CCCCNC(=O)CC[C@H](NC(=O)CC[C@H](NC(=O)CC[C@H](NC(=O)CC[C@H](NC(=O)CC[C@H](NC(=O)CC[C@H](NC(=O)CCCCCCCCCCCCCCCCC(=O)O)C(=O)O)C(=O)O)C(=O)O)C(=O)O)C(=O)O)C(=O)O)C(=O)NC(C)(C)C(=O)N[C@H](C(=O)N[C@@H](CCCNC(=N)N)C(=O)N[C@@H](CCC(N)=O)C(=O)N[C@@H](CCCNC(=N)N)C(=O)N[C@@H](Cc1ccc(O)cc1)C(N)=O)[C@@H](C)O` [Compound 112, Y-Aib-E-G-T-F-T-S-D-Y-S-E-Aib-L-E-K-Q-A-Q-Aib-A-F-V-R-H-L-I-N-K(1,3)-Aib-T-R-Q-R-Y-NH2.C18DA-gGlu-gGlu-gGlu-gGlu-gGlu-gGlu-eLys(1,2)], the solubility is 4400 µg/mL.
For `CC[C@H](C)[C@H](NC(=O)[C@H](CC(C)C)NC(=O)[C@H](Cc1c[nH]cn1)NC(=O)[C@H](CCCNC(=N)N)NC(=O)[C@@H](NC(=O)[C@H](Cc1ccccc1)NC(=O)[C@H](C)NC(=O)C(C)(C)NC(=O)[C@H](CCC(N)=O)NC(=O)[C@H](C)NC(=O)[C@H](CCC(N)=O)NC(=O)[C@H](CCCCN)NC(=O)[C@H](CCC(=O)O)NC(=O)[C@H](CC(C)C)NC(=O)C(C)(C)NC(=O)[C@@H](NC(=O)[C@H](CO)NC(=O)[C@H](Cc1ccc(O)cc1)NC(=O)[C@H](CC(=O)O)NC(=O)[C@H](CO)NC(=O)[C@@H](NC(=O)[C@H](Cc1ccccc1)NC(=O)[C@@H](NC(=O)CNC(=O)[C@H](CCC(=O)O)NC(=O)C(C)(C)NC(=O)[C@@H](N)Cc1ccc(O)cc1)[C@@H](C)O)[C@@H](C)O)[C@@H](C)CC)C(C)C)C(=O)N[C@@H](CC(N)=O)C(=O)N[C@@H](CCCCNC(=O)COCCOCCNC(=O)COCCOCCNC(=O)CC[C@H](NC(=O)CC[C@H](NC(=O)CC[C@H](NC(=O)CC[C@H](NC(=O)CC[C@H](NC(=O)CCCCCCCCCCCCCCCCC(=O)O)C(=O)O)C(=O)O)C(=O)O)C(=O)O)C(=O)O)C(=O)NC(C)(C)C(=O)N[C@H](C(=O)N[C@@H](CCCNC(=N)N)C(=O)N[C@@H](CCC(N)=O)C(=O)N[C@@H](CCCNC(=N)N)C(=O)N[C@@H](Cc1ccc(O)cc1)C(N)=O)[C@@H](C)O` [Compound 117, Y-Aib-E-G-T-F-T-S-D-Y-S-I-Aib-L-E-K-Q-A-Q-Aib-A-F-V-R-H-L-I-N-K(1,3)-Aib-T-R-Q-R-Y-NH2.C18DA-gGlu-gGlu-gGlu-gGlu-gGlu-OEG-OEG(1,2)], the solubility stood at 4800 µg/mL.
